The text below walks through data of US6716833B2, “Acetylenic α-amino acid-based sulfonamide hydroxamic acid tace inhibitors” (priority 1999, dated 2004).

In one data set the target is T1, MMP-1 (Homo sapiens, UniProt P03956).
T1 sequence (P03956 100-469): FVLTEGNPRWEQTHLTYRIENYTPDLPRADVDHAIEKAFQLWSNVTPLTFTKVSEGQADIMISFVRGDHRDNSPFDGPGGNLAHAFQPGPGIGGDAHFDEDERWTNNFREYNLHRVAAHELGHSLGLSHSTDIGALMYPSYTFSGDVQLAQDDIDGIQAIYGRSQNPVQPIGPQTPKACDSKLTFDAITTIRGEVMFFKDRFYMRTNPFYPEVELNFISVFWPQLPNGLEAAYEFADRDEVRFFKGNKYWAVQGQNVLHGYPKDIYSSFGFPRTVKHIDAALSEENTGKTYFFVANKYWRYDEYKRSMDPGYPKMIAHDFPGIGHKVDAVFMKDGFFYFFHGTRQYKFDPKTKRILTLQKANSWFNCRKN
Kind of data set: MMP-1 inhibition (thiopeptide or fluorescent peptide substrate). The data set is classed as biochemical. The settings on record: read-out: MMP-1 IC50.

In the next data set the target is MMP-13 (Homo sapiens, UniProt P45452). In words: MMP-13 inhibition (thiopeptide or fluorescent peptide substrate). The data set is classed as biochemical.
For the next data set, the target named is MMP-9 (Homo sapiens, UniProt P14780). Kind of data set: MMP-9 inhibition (thiopeptide or fluorescent peptide substrate). The data set is classed as biochemical. The following applies: read-out: MMP-9 IC50.
Chain of MMP-9 (P14780 94-707): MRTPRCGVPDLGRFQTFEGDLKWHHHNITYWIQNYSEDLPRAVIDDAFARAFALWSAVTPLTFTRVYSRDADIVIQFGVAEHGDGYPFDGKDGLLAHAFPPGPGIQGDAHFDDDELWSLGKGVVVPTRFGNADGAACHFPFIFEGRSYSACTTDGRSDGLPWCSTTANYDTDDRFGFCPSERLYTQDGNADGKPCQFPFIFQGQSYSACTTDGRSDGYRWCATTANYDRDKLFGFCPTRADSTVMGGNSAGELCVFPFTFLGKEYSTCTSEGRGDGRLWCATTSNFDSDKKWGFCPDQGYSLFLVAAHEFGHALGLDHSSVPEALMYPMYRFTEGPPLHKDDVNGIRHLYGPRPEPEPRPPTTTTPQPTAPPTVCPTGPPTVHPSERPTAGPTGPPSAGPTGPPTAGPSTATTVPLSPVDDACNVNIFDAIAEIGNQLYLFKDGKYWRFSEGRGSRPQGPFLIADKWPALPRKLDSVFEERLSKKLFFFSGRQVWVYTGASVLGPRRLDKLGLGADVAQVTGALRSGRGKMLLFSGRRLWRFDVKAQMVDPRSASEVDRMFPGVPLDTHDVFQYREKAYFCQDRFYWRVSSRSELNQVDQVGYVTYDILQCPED
In data set [1] the target is TNF-α converting enzyme (TACE) (Homo sapiens, UniProt P78536). In words: TACE inhibition (fluorescent peptidyl substrate). The data set is classed as biochemical. The settings on record: read-out: TACE IC50.
Chain of TNF-α converting enzyme (TACE) (P78536 215-824, species assumed): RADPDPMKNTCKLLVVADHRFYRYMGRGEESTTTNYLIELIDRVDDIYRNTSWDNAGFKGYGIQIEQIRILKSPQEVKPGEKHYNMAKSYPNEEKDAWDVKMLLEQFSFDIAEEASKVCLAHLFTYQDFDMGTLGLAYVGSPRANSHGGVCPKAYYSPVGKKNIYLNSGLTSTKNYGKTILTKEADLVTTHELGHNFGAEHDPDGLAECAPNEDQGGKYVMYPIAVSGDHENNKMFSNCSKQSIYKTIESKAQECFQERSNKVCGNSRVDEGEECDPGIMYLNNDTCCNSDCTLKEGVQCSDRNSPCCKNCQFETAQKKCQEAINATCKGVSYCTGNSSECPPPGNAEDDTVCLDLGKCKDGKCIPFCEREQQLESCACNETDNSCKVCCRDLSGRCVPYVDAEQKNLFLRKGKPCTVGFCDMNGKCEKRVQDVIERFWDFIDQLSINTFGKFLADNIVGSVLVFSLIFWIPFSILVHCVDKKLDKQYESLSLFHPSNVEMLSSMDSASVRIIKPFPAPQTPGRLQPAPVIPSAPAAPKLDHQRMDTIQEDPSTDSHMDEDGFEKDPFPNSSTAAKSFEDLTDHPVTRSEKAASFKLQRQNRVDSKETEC
Method: Using 96-well black microtiter plates, each well receives a solution composed of 10 μL TACE (final concentration 1 μg/mL), 70 μL Tris buffer, pH 7.4 containing 10% glycerol (final concentration 10 mM), and 10 μL of test compound solution in DMSO (final concentration 1 μM, DMSO concentration <1%) and incubated for 10 minutes at room temperature.
The reaction is read (excitation 340 nm, emission 420 nm) for 10 min. and the increase in fluorescence over time is plotted as a linear line. The slope of the line is calculated and represents the reaction rate.
The linearity of the reaction rate is confirmed (r^2>0.85). The mean (x±sem) of the control rate is calculated and compared for statistical significance (p<0.05) with drug-treated rates using Dunnett's multiple comparison test.
[2] abbreviates: Table 10, read-out: MMP-13 IC50.
Where [3] appears, read: Table 11, read-out: MMP-13 IC50.

Counter-ions that a name gives are not always drawn. Like-named read-outs stand apart in the source and are kept apart here.

Method for MMP-13: The enzyme activity is measured by the rate of the color increase. The thiopeptide substrate is made up fresh as a 20 mM stock in 100% DMSO and the DTNB is dissolved in 100% DMSO as a 100 mM stock and stored in the dark at room temperature. Both the substrate and DTNB are diluted together to 1 mM with substrate buffer (50 mM HEPES pH 7.5, 5 mM CaCl2) before use. The stock of enzyme is diluted with buffer (50 mM HEPES, pH 7.5, 5 mM CaCl2, 0.02% Brij) to the desired final concentration.
Alternatively, a fluorescent peptide substrate is used. In this test procedure, the peptide substrate contains a fluorescent group and a quenching group. Upon cleavage of the substrate by an MMP, the fluorescence that is generated is quantitated on the fluorescence plate reader. The assay is run in HCBC assay buffer (50 mM HEPES, pH 7.0, 5 mM Ca^+2, 0.02% Brij, 0.5% Cysteine), with human recombinant MMP-1, MMP-9, or MMP-13. […] For the assay, substrate and enzymes are diluted in HCBC buffer to the desired concentrations. Compounds are added to the 96 well plate containing enzyme and the reaction is started by the addition of substrate.
For either the thiopeptide or fluorescent peptide test procedures, the slope of the line is calculated and represents the reaction rate. The linearity of the reaction rate is confirmed (r^2>0.85). The mean (x±sem) of the control rate is calculated and compared for statistical significance (p<0.05) with drug-treated rates using Dunnett's multiple comparison test.

In general, melting point refers to the temperature, or range, at which the solid turns liquid. For the compound `CC#CCOc1ccc(S(=O)(=O)N(C)C(C(=O)NO)C(C)(C)SCCN2CCOCC2)cc1` (stereo not drawn) (as salt: hydrochloride) [Example 140, 2-({[4-(2-Butynyloxy)phenyl]sulfonyl)(methyl)amino]-N-hydroxy-3 Methyl-3-[(2(4-morpholinylethyl)sulfanyl]-butanamide Hydrochloride], the melting point was 50 °C (dec.).
For `CC#CCOc1ccc(S(=O)(=O)N(C)C(C(=O)NO)C(C)(C)SCCn2ccnc2)cc1` (stereo not drawn) (as salt: hydrochloride) [Example 144, 2-({[4-(2-Butynyloxy)phenyl]sulfonyl)(methyl)amino]-N-hydroxy-3 Methyl-3-{[2-(1H-imidazol-1-yl)ethyl]sulfanyl}butanamide], the melting point lay in the range of 67 to 70 °C.
The IC50 is the concentration that inhibits the measured activity by half. For the compound `CC#CCOc1ccc(S(=O)(=O)N2CCN(Cc3ccc(Br)cc3)CC2C(=O)NO)cc1` (stereo not drawn) [Example 233, 4-(4-Bromo-benzyl)-1-(4-but-2-ynyloxy-benzenesulfonyl)-piperazine-2-carboxylic Acid Hydroxyamide], the IC50 is 2830 nM on MMP-1, 55 nM at MMP-13 (read-out: MMP-13 IC50), 69 nM at MMP-9 and 184 nM in data set [1].
Turning to `CC#CCOc1ccc(S(=O)(=O)N2CCN(Cc3cccnc3)CC2C(=O)NO)cc1` (stereo not drawn) [Example 234, 1-(4-but-2-ynyloxy-Benzenesulfonyl)-4-pyridin-3-ylmethyl-piperazine-2-carboxylic Acid Hydroxyamide], the IC50 on MMP-1 is 3200 nM; at MMP-13 (MMP-13 IC50), 49 nM; at MMP-9, 108 nM; in data set [1], 28 nM.
On to `CC1(C)SCCN(S(=O)(=O)c2ccc(OCC#CCCOC3CCCCO3)cc2)C1C(=O)NO` (stereo not drawn) [Example 243, N-Hydroxy-2,2-dimethyl-4-[(4-{[5-(tetrahydro-2H-pyran-2-yloxy)-2-pentynyl]oxy}phenyl)sulfonyl]-3-thiomorpholine Carboxamide], for which the IC50 on MMP-1 (Table 10) came out at 194 nM; at MMP-13 (setting [2]), 4.1 nM; on MMP-9 (Table 10), 178 nM; in data set [1] (Table 10) it was 87 nM.
On the same counts, the results for `CC1(C)SCCN(S(=O)(=O)c2ccc(OCC#CCCO)cc2)C1C(=O)NO` (stereo not drawn) [Example 244, N-Hydroxy-4-({4-[(5-hydroxy-2-pentynyl)oxy]phenyl}sulfonyl)-2,2-dimethyl-3-thiomorpholine Carboxamide] are 35 nM, 14 nM, 72 nM and 62 nM.
`CC(C)(C)OC(=O)NCCC#CCOc1ccc(S(=O)(=O)N2CCSC(C)(C)C2C(=O)NO)cc1` (stereo not drawn) [Example 245, tert-Butyl 5-[4-({3-[(Hydroxyamino)carbonyl]-2,2-dimethyl-4-thiomorpholinyl}sulfonyl)phenoxy]-3-pentynylcarbamate]: the IC50 on MMP-1 (Table 10) is 300 nM; at MMP-13 (setting [2]), 6.6 nM; at MMP-9 (Table 10), 2380 nM; in data set [1] (Table 10) it was 112 nM.
Consider `CC1(C)SCCN(S(=O)(=O)c2ccc(OCC#CCCN)cc2)C1C(=O)NO` (stereo not drawn) [Example 246, 4-({4-[(5-Amino-2-pentynyl)oxy]phenyl}sulfonyl)-N-hydroxy-2,2-dimethyl-3-thiomorpholine Carboxamide], for which the 50% inhibitory concentration (IC50) is 1050 nM at MMP-1 (Table 10), 27 nM on MMP-13 (setting [2]), 41 nM at MMP-9 (Table 10) and 138 nM in data set [1] (Table 10).
Turning to `CC1(C)SCCN(S(=O)(=O)c2ccc(OCC#CCOCc3ccccc3)cc2)C1C(=O)NO` (stereo not drawn) [Example 247, 4-[(4-{[4-(Benzyloxy)-2-butynyl]oxy}phenyl)sulfonyl]-N-hydroxy-2,2-dimethyl-3-thiomorpholine Carboxamide], the IC50 came out at 53 nM on MMP-1 (Table 10), 2.5 nM at MMP-13 (setting [2]), 108 nM on MMP-9 (Table 10) and 160 nM in data set [1] (Table 10).
With `CC1(C)SCCN(S(=O)(=O)c2ccc(OCC#CCCCOC3CCCCO3)cc2)C1C(=O)NO` (stereo not drawn) [Example 248, N-Hydroxy-2,2-dimethyl-4-[(4-{[6-(tetrahydro-2H-pyran-2-yloxy)-2-hexynyl]oxy}phenyl)sulfonyl]-3-thiomorpholine Carboxamide], the IC50 was 98 nM at MMP-1 (Table 10), 7.3 nM on MMP-13 (setting [2]), 48 nM at MMP-9 (Table 10) and 92 nM in data set [1] (Table 10).
For `CC1(C)SCCN(S(=O)(=O)c2ccc(OCC#CCCCO)cc2)C1C(=O)NO` (stereo not drawn) [Example 249, N-Hydroxy-4-({4-[(6-hydroxy-2-hexynyl)oxy]phenyl}sulfonyl)-2,2-dimethyl-3-thiomorpholine Carboxamide], the IC50 on MMP-1 (Table 10) turned out to be 159 nM; at MMP-13 (setting [2]), 86 nM; on MMP-9 (Table 10) it was 377 nM; in data set [1] (Table 10), 40 nM.
For the compound `CC(C)(C)OC(=O)NCCCC#CCOc1ccc(S(=O)(=O)N2CCSC(C)(C)[C@@H]2C(=O)NO)cc1` [Example 250, tert-Butyl 6-[4-({(3S)-3-[(Hydroxyamino)carbonyl]-2,2-dimethylthiomorpholinyl}sulfonyl)phenoxy]-4-hexynylcarbamate], the IC50 amounted to 42 nM on MMP-1 (Table 10), 1.7 nM at MMP-13 (setting [2]), 160 nM at MMP-9 (Table 10) and 153 nM in data set [1] (Table 10).
For the compound `CC1(C)SCCN(S(=O)(=O)c2ccc(OCC#CCCCN)cc2)[C@H]1C(=O)NO` [Example 251, (3S)-4-({4-[(6-Amino-2-hexynyl)oxy]phenyl}sulfonyl)-N-hydroxy-2,2-dimethyl-3-thiomorpholine Carboxamide], the IC50 at MMP-1 (Table 10) was 226 nM; at MMP-13 (setting [2]) it was 8.7 nM; at MMP-9 (Table 10), 28 nM; in data set [1] (Table 10), 28 nM.
Take `CC#CCOc1ccc(S(=O)(=O)N2CCS(=O)(=O)C(C)(C)[C@@H]2C(=O)NO)cc1` [Example 257, (3S)-4-{[4-(2-Butynyloxy)phenyl]sulfonyl}-N-hydroxy-2,2-dimethyl-3-thiomorpholine Carboxamide 1,1-Dioxide]: the IC50 on MMP-1 (Table 9) came out at 24 nM; at MMP-13 (Table 9, read-out: MMP-13 IC50), 23 nM; at MMP-9 (Table 9), 64 nM; in data set [1] (Table 9) it was 24 nM.
On to `CC(C)(C)OC(=O)NCC#CCOc1ccc(S(=O)(=O)N2CCSC(C)(C)C2C(=O)NO)cc1` (stereo not drawn) [Example 266, tert-Butyl 4-[4-({3-[(Hydroxyamino)carbonyl]-2,2-dimethyl-4-thiomorpholinyl}sulfonyl)phenoxy]-2-butynylcarbamate], for which the IC50 on MMP-1 (Table 10) stood at 26 nM; at MMP-13 (setting [2]) it was 4 nM; at MMP-9 (Table 10), 31 nM; in data set [1] (Table 10), 74 nM.
On to `CN(CC#CCOc1ccc(S(=O)(=O)N2CCSC(C)(C)C2C(=O)NO)cc1)C(=O)OC(C)(C)C` (stereo not drawn) [Example 267, tert-Butyl 4-[4-({3-[(Hydroxyamino)carbonyl]-2,2-dimethyl-4-thiomorpholinyl}sulfonyl)phenoxy]-2-butynyl(methyl)carbamate], for which the IC50 on MMP-1 (Table 10) stood at 364 nM; at MMP-13 (setting [2]), 37 nM; at MMP-9 (Table 10), 1260 nM; in data set [1] (Table 10), 112 nM.
For the compound `CC#CCOc1ccc(S(=O)(=O)N2C[C@H](C)SC(C)(C)[C@@H]2C(=O)NO)cc1` [Example 272, (3S,6S)-4-{[4-(2-Butynyloxy)phenyl]sulfonyl}-N-hydroxy-2,2,6-trimethyl-3-thiomorpholinecarboxamide], the IC50 at MMP-1 (Table 11) stood at 7.8 nM; at MMP-13 (setting [3]) it was 8.7 nM; at MMP-9 (Table 11) it was 166 nM; in data set [1] (Table 11) it was 24 nM.
On the same counts, the results for `CC#CCOc1ccc(S(=O)(=O)N2C[C@@H](CN)SC(C)(C)[C@@H]2C(=O)NO)cc1` [Example 275, (3S,6R)-trans-6-(Aminomethyl)-4-{[4-(2-butynyloxy)phenyl]sulfonyl}-N-hydroxy-2,2-dimethyl-3-thiomorpholinecarboxamide Hydrochloride] are 30 nM, 16 nM, 22 nM and 128 nM.
As to `CC#CCOc1ccc(S(=O)(=O)N2C[C@H](CN)SC(C)(C)[C@@H]2C(=O)NO)cc1` [Example 276, (3S,6S)-cis-6-(Aminomethyl)-4-{[4-(2-butynyloxy)phenyl]sulfonyl}-N-hydroxy-2,2-dimethyl-3-thiomorpholinecarboxamide Hydrochloride], the IC50 was 21 nM at MMP-1 (Table 11), 24 nM at MMP-13 (setting [3]), 84 nM at MMP-9 (Table 11) and 57 nM in data set [1] (Table 11).
Take `CC#CCOc1ccc(S(=O)(=O)N2CSC(C)(C)[C@@H]2C(=O)NO)cc1` [Example 286, (4S)-3-{[4-(2-Butynyloxy)phenyl]sulfonyl}-N-hydroxy-5,5-dimethyl-1,3-thiazolidine-4-carboxamide]: the IC50 turned out to be 3040 nM on MMP-1, 852 nM at MMP-13 (read-out: MMP-13 IC50), 1790 nM at MMP-9 and 20 nM in data set [1].
As to `CC#CCOc1ccc(S(=O)(=O)N2CCN(C(=O)c3ccccc3)CCC2C(=O)NO)cc1` (stereo not drawn) [Example 289, 1-Benzoyl-4-{[4-(2-butynyloxy)phenyl]sulfonyl}-N-hydroxy-1,4-diazepane-5-carboxamide], the IC50 on MMP-1 is 113 nM; at MMP-13 (read-out: MMP-13 IC50), 4 nM; on MMP-9 it was 12 nM; in data set [1], 10 nM.
